Experiment [1] deals with T1, CISD1 Gene Product (mitoNEET) (Homo sapiens, UniProt Q9NZ45).
T1 sequence (Q9NZ45 33-108 limits assumed): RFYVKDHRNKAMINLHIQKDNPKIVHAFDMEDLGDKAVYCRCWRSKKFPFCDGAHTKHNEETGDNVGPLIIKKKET
The experiment can be described thus: Stability of Fe-S cluster binding of purified NEET protein (absorbance 458 nm), mitoNEET. In kind it is biochemical. As to the method:
The modulator effect on the NEET proteins encoded by human CISD1, CISD2, and CISD3 genes by the compounds of the invention has been tested and is reported below. Particularly, the biochemical function of the NEET proteins is measured by the stability of Fe—S cluster binding of the purified NEET proteins.
The Fe—S cluster binding capacity of NEET proteins is known to be coordinated by four amino-acids in a stretch of 16 (three Cysteine and one Histidine). As the lability of the Fe—S cluster of NEET proteins is sensitive to the environment, cluster stability measurements are one of the measures of interactions of NEET proteins with small molecules and compounds. NEET protein/2Fe-2S cluster stability can be assessed by monitoring the decay in absorbance of its characteristic 458-nm peak (characteristic of the oxidized 2Fe-2S cluster) over time. Each NEET protein (mitoNEET, NAF-1 and Miner 2) was tested for its Fe—S binding in the absence or presence of a compound according to the invention (see table 3 below). […]
At pH 6, all the three NEET proteins (mitoNEET, NAF-1 and Miner 2) have a characteristic rate of loss of the bound Fe—S cluster that can be measured by the decrease of absorbance at wavelength 458 nm over time, using a spectrophotometer. […]
A reaction mix containing DMSO diluted in the Bis-Tris Buffer with or without a compound of the invention was prepared. […] The absorbance at wavelength 458 nm was taken at 5 minutes intervals at 37° C. with a spectrofluorimeter. […]
In addition to time monitoring, residual bound Fe—S cluster to NEET protein was measured at the final point of the spectrometry assay for each Test sample and compared to the Control sample data (in parenthesis table 3). This residual binding is measured by the differential percentage between the absorbance 458 nm at time zero and the absorbance 458 nm at the end of the experiment (i.e. respectively 500 or 180 minutes as described hereabove), showing the percentage of NEET protein still able to bind a Fe—S cluster. […]

In the next experiment the test system is UXF 1138. The experiment can be described thus: Cytotoxicity, propidium iodide based monolayer assay, UXF 1138. In kind it is cell-based. The settings on record: 96 h; UXF 1138 (uterine sarcoma), four days of treatment, T/C=50%; read-out: Absolute IC50. The protocol:
The cytotoxicity was tested for compounds of the invention on five different cell-lines, namely LXFL 1121, MAXF 401, MMXF L-636, PRXF PC-3M and UXF 1138 which are respectively lung large cell carcinoma, breast adeno carcinoma, multiple myeloma, prostate adeno carcinoma and uterine sarcoma.
A working stock solution of the test compounds was prepared in DMSO at a concentration of 33 mM or 8.25 mM, and small aliquots were stored at −20° C. On each day of an experiment, a frozen aliquot of the working stock solution was thawed and stored at room temperature prior to and during treatment.
All liquid handling steps were performed using the Tecan Freedom EVO 200 platform. First, serial 2-fold dilutions of the 33 mM DMSO working stock solution were done in DMSO. […]
A modified propidium iodide (PI) based monolayer assay was used to assess the anti-cancer activity of the compounds. Briefly, cells were harvested from exponential phase cultures, counted and plated in 96 well flat-bottom microtiter plates at a cell density of 4,000 to 40,000 cells/well dependent on the cell line's growth rate. […] After an incubation period of 1-2 hours at room temperature, fluorescence (FU) was measured using the Enspire Multimode Plate Reader (excitation λ=530 nm, emission λ=620 nm) to quantify the amount of attached viable cells. […]

Results on one compound are retold here after patent publication US11767316B2, “Non-fused thiophene derivatives and their uses” (ENYO PHARMA, priority 2018, dated 2023).

SMILES strings stand for the structures.

Usually IC50 stands for the concentration that gives 50% inhibition. Take `O=C(Nc1scc(C2CCc3ccccc3C2)c1C(=O)O)c1ccccc1` (stereo not shown) [#16]: the “Time (in minutes) to achieve 50% loss of bound cluster (Absorbance 458 nm)” value in experiment [1] (mitoNEET 20 μM, compound 60 μM, pH 6, 37° C., vehicle control 80) is reported as 35 (80) minutes. Moreover, the “Residual cluster bound at end of experiment (Percentage Absorbance 458 nm at time zero)” value in experiment [1] (mitoNEET, end of experiment 180 minutes, compound 60 μM, pH 6, vehicle control 16%) is given as 0% (16%). Besides, in experiment [1] (mitoNEET, destabiliser = time to 50% cluster loss decreased by more than 25% vs control), the “Stabiliser or destabiliser of NEET protein/Fe-S cluster binding” value was “destabilisers”. In the experiment on UXF 1138, the IC50 is 0.324 µM.
